Test results as given in article PMC11578313, “Miniaturized Modular Click Chemistry‐enabled Rapid Discovery of Unique SARS‐CoV‐2 M^pro Inhibitors With Robust Potency and Drug‐like Profile” (Advanced Science, 2024).
Where two headings read alike, the source gives them in different places.

Assays:
[1] = system: SARS‐CoV‐2 (hCoV‐19/Korea/KCDC06/2020, wild type); test: microbe, parasite or virus in culture; type: cell-based
[2] = system: HCoV‐229E; test: microbe, parasite or virus in culture; type: cell-based
[3] = in vitro; conditions: human

Q: With `Cc1cncc(C(=O)N2C[C@H]3CC[C@@H](C2)N3[C@H](c2cccc(F)c2)c2cn(CCc3ccsc3)nn2)c1` [Compound C5N17B] as the compound, how does the EC50 ([1]; Severe acute respiratory syndrome coronavirus 2, Calu-3, Calu‐3, read-out: EC50 ± SD, SARS‐CoV‐2 Wild‐type) read?
A: 119 ± 11 nM

Q: And the EC50 ([1]; Severe acute respiratory syndrome coronavirus 2, Calu-3, Calu‐3 cells, racemate, enantiomers and […] measured in the same system, read-out: EC50, anti‐SARS‐CoV‐2 activity in Calu‐3 cells (Figure 3B))?
A: 78 nM

Q: What about the EC50 ([2]; Human coronavirus 229E, MRC5, read-out: EC50 ± SD, HCoV‐229E) of the same compound?
A: > 100 µM

Q: And the “EC50 ± SD, HCoV‐229E” value ([2]; MRC‐5)?
A: failed to inhibit

Q: What about the CC50 [3] of the same compound?
A: > 100 µM

Q: What about the CC50 at 2 day ([3]; CC50 (Table 3), Calu‐3 cells) of the same compound?
A: > 100 µM

Q: What about the CC50 at 2 day ([3]; CC50, Calu‐3 cells, MTT assay) of the same compound?
A: > 100 µM

Q: What about the CC50 at 2 day ([3]; CC50, column 9, after the Calu-3 EC50 columns) of the same compound?
A: > 100 µM
